Results as given in the CheMixHub viscosity set.
Where “and” joins values, the source holds several entries; their conditions need not be identical. Identical values can stand only once.

Assay: xn = mol fraction of the nth substance listed

OC[C@H]1O[C@H](O[C@H]2[C@H](O)[C@@H](O)C(O)O[C@@H]2CO)[C@H](O)[C@@H](O)[C@@H]1O (stereo not given in full) + O
viscosity
Conditions | 293.15 K | 298.15 K | 303.15 K | 308.15 K | 313.15 K | 318.15 K
100 kPa, x1 = 0.0009465 | – | – | – | 0.759 mPa·s | – | 0.627 mPa·s
100 kPa, x1 = 0.000975 | – | 0.942 mPa·s | – | 0.763 mPa·s | – | 0.628 mPa·s
100 kPa, x1 = 0.001093 | – | 0.948 mPa·s | – | 0.765 mPa·s | – | 0.632 mPa·s
100 kPa, x1 = 0.001306 | – | 0.96 mPa·s | – | 0.773 mPa·s | – | 0.639 mPa·s
100 kPa, x1 = 0.00134 | – | 0.96 mPa·s | – | 0.776 mPa·s | – | 0.639 mPa·s
100 kPa, x1 = 0.001467 | – | 0.968 mPa·s | – | – | – | –
100 kPa, x1 = 0.00157 | – | 0.972 mPa·s | – | 0.786 mPa·s | – | 0.645 mPa·s
100 kPa, x1 = 0.001596 | – | 0.975 mPa·s | – | 0.785 mPa·s | – | 0.648 mPa·s
100 kPa, x1 = 0.001818 | – | 0.985 mPa·s | – | 0.794 mPa·s | – | 0.655 mPa·s
100 kPa, x1 = 0.002168 | – | – | – | 0.804 mPa·s | – | 0.667 mPa·s
100 kPa, x1 = 0.002215 | – | – | – | 0.81 mPa·s | – | 0.669 mPa·s
100 kPa, x1 = 0.002657 | – | 1.029 mPa·s | – | 0.827 mPa·s | – | 0.682 mPa·s
101 kPa, x1 = 0.0009 | 1.022 mPa·s | 0.9029 mPa·s | 0.8044 mPa·s | 0.7221 mPa·s | 0.6529 mPa·s | –
101 kPa, x1 = 0.00099 | 1.025 mPa·s | 0.9064 mPa·s | 0.8074 mPa·s | 0.724 mPa·s | 0.6549 mPa·s | –
101 kPa, x1 = 0.0011 | 1.03 mPa·s | 0.9093 mPa·s | 0.8099 mPa·s | 0.7266 mPa·s | 0.6564 mPa·s | –
101 kPa, x1 = 0.0012 | 1.033 mPa·s | 0.9119 mPa·s | 0.812 mPa·s | 0.7287 mPa·s | 0.6586 mPa·s | –
101 kPa, x1 = 0.0013 | 1.037 mPa·s and 1.041 mPa·s | 0.9159 mPa·s and 0.9193 mPa·s | 0.8144 mPa·s and 0.8178 mPa·s | 0.7315 mPa·s and 0.7341 mPa·s | 0.6606 mPa·s and 0.6619 mPa·s | –
101 kPa, x1 = 0.0014 | 1.045 mPa·s | 0.9231 mPa·s | 0.8202 mPa·s | 0.7362 mPa·s | 0.6645 mPa·s | –
101 kPa, x1 = 0.0015 | 1.05 mPa·s | 0.9262 mPa·s | 0.823 mPa·s | 0.7383 mPa·s | 0.6669 mPa·s | –
101 kPa, x1 = 0.0016 | 1.054 mPa·s | – | 0.8261 mPa·s | 0.7406 mPa·s | 0.6687 mPa·s | –
101 kPa, x1 = 0.0018 | 1.062 mPa·s | 0.9361 mPa·s | 0.833 mPa·s | 0.7449 mPa·s | 0.6724 mPa·s | –
101.3 kPa, x1 = 0.000724 | – | – | – | 0.751 mPa·s | – | –
101.3 kPa, x1 = 0.00107 | – | 0.948 mPa·s | – | 0.766 mPa·s | – | 0.633 mPa·s
101.3 kPa, x1 = 0.00143 | – | 0.964 mPa·s | – | 0.779 mPa·s | – | 0.643 mPa·s
101.3 kPa, x1 = 0.00179 | – | 0.984 mPa·s | – | 0.794 mPa·s | – | 0.655 mPa·s
101.3 kPa, x1 = 0.002146 | – | – | – | 0.809 mPa·s | – | –
101.3 kPa, x1 = 0.002501 | – | 1.019 mPa·s | – | 0.819 mPa·s | – | 0.678 mPa·s
101.3 kPa, x1 = 0.002851 | – | 1.037 mPa·s | – | 0.836 mPa·s | – | 0.688 mPa·s
101.3 kPa, x1 = 0.003177 | – | 1.053 mPa·s | – | 0.848 mPa·s | – | 0.698 mPa·s
